Test [1] relates to lambs with acute pulmonary hypertension. Particulars: inhaled microparticles, awake lambs, U-46619-induced pulmonary hypertension; cited from earlier work.
For test [2], the target named is T1, soluble guanylate cyclase (sGC) (Homo sapiens (Human), UniProt Q02108+Q02153). Kind of test: sGC-HEK-cGMP assay with SNP incubation, LC/MS detection (Example 2A). It is filed as cell-based. As to conditions: HEK293 cells, 10 μM SNP, LC/MS detection; for Emax: 100% = BAY 41-2272 at 10 μM, read-out: HEK assay Emax - unconstrained (%). In outline:
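HEK293 cells with endogenous sGC were pretreated 15 min at 37 °C with 0.5 mM IBMX, then exposed 10 min at 37 °C to compound (added from 0.0001–30 μM solutions) plus SNP (from 10 μM solution). After 0.1 M HCl lysis, cGMP was quantified by LC/MS against a standard curve.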

Test [3] addresses T1, soluble guanylate cyclase (sGC). Nature of the test: sGC-HEK-cGMP assay with SNP incubation, HTRF detection (Example 2B). It counts as cell-based. Particulars: HEK293 cells, 10 μM SNP; for Emax: 100% = BAY 41-2272 at 10 μM + 100 μM SNP, read-out: HEK assay Emax - unconstrained (%); for EC50: read-out: HEK assay EC50 - unconstrained. As to the method:
Human embryonic kidney cells (HEK293), endogenously expressing soluble guanylate cyclase (sGC), were used to evaluate the activity of test compounds. Compounds stimulating the sGC enzyme should cause an increase in the intracellular concentration of cGMP. HEK 293 cells were seeded in Dulbecco's Modification of Eagle's Medium supplemented with fetal bovine serum (10% final) and L-glutamine (2 mM final) in a 200 μL volume at a density of 1×10^5 cells/well in a poly-D-lysine coated 96 well flat bottom plate and grown overnight at 37° C. Medium was aspirated and cells were washed with 1× Hank's Buffered Saline Salt Solution (200 μL). Cells were then incubated for 15 minutes at 37° C. with 200 μL of a 0.5 mM 3-isobutyl-1-methylxanthine (IBMX) solution. Test article and sodium nitroprusside solutions were then added to the assay mixture (2 μL each) and the resulting mixture incubated at 37° C. for 10 minutes. After the 10 minute incubation, the assay mixture was aspirated and 0.1M HCl (200 μL) was added to the cells. The plate was incubated at 4° C. for 30 minutes in the 0.1M HCl to stop the reaction and lyse the cells. The plates were then centrifuged at 1,200 g for 5 minutes at room temperature. GMP levels were determined using a cGMP HTRF assay (Cisbio Product #62GM2PEC). For each sample, 5 uL of HEK assay supernatant was diluted 1:5 in HTRF kit assay diluent and transferred to a well of the assay plate, and the HTRF assay was performed according to the HTRF kit manufacturer's instructions. Sample calculations were performed using high and low controls, where high control was supernatant from HEK assay performed in the presence of 10 uM Bay 41-2272+100 uM SNP, and the low control was the supernatant from the HEK assay performed in the presence of vehicle. A cGMP standard solution was prepared in 0.1 M HCl and diluted in order to perform a cGMP standard curve using the HTRF assay. Using Mean Ratio data from the HTRF assay, sample date were normalized according to the equation: 100*(Sample−Low Control)/(High Control−Low Control). Data were fit to a 3-parameter log agonist dose response (Top (% EMax), Bottom, log EC50) using Graphpad (Prism Software). Data in Table 4 was obtained using this modified assay procedure. (x μM concentration for test article solution and 10 μM concentration for SNP solution; wherein x is one of the following concentrations: 30 μM, 10 μM, 3 μM, 1 μM, 0.3 μM, 0.1 μM, 0.03 μM, 0.01 μM, 0.003 μM, 0.001 μM, 0.0003 μM and 0.01 nM.

For test [4] the target is unchanged. Kind of test: sGC-HEK-cGMP assay, new protocol with DETA-NONOate, LC/MS detection (Example 2C). Particulars: read-out: Absolute EC50 (uM) - binned. It is filed as cell-based.
The subject of test [5] is Sprague-Dawley rats. Nature of the test: Blood pressure change in Sprague-Dawley rats (Example 4). It counts as in vivo, rat. Particulars: conscious male Sprague-Dawley rats, PO, 10 mg/kg. As to the method:
Male rats (250-350 g body weight, supplied by Harlan Laboratories) were anesthetized with ketamine/xylazine and a heparinized saline fluid filled catheter implanted into the right femoral artery. The catheter was exteriorized between the scapula, capped, and the animal allowed to recover for at least 7 days post surgery prior to any compound testing. Prior to testing animals were maintained on normal diet, with free access to drinking water, under a 12 hour light-dark cycle.
On the day of experimentation, under inhaled isoflurane anesthesia, the catheter was uncapped and connected to a tether (Instech Labs) and pressure transducer (Harvard Apparatus). Blood pressure and heart rate were subsequently captured and analyzed with a dedicated data capture system (PowerLab, ADInstruments). Data sampling rates were set at 1 cycle per second. Once connected, each rat was allowed to recover from anesthesia and baseline blood pressure and heart rate levels were established in these conscious, freely-moving animals. Once baseline was established either vehicle (0.5% methylcellulose or 100% PEG400) or test article was administered orally (PO, 10 mg/kg) and the effects on blood pressure and heart rate monitored for up to 24 hours.
Data are reported as hourly averages and changes in blood pressure are calculated from subtracting individual baseline on an hourly basis.

The subject of test [6] is Guinea pig tracheal smooth muscle. Nature of the test: Electrical field stimulated guinea pig tracheal smooth muscle contraction. Particulars: inhibition of EFS-induced guinea pig tracheal smooth muscle contraction; 95% CI 0.78-0.94. The source says:
It is possible to assess the bronchodilating effects of sGC stimulators by using the system described below. This system allows us to determine potency, efficacy and duration of action of several sGC stimulators, as well as to assess potential side effects such as blood pressure, or heart rate changes.
Animals: Guinea pig, Dunkin Hartley, male, Full barrier-bred and certified free of specific micro-organisms on receipt 525-609 g on the experimental day, Harlan UK Ltd. Guinea pigs are housed in a group of 4 in solid-bottomed cages with Gold Flake bedding in a controlled environment (airflow, temperature and humidity). Food (FD1, Special Diet Services) and water are provided ad libitum.
On each experimental day, a guinea pig is killed by exposure to a rising concentration of CO2 and the trachea removed. […] Tissues are washed with Kreb's buffer and stimulated using the previously determined sub-maximal voltage for 1 hour to establish a stable baseline contraction prior to assessment of compound activity.
A cumulative dose response curve (DRC) to each test substance is then performed and changes in smooth muscle contraction measured. The effect of each test substance in each experiment is expressed as a percentage inhibition of the baseline contraction, normalized to the relevant vehicle controls. […]

Test [7] relates to patients with BMD. As to conditions: single oral dose of 20 mg; cited from earlier work.
Setting [8] is: top of curve not fitted to 100%, read-out: HEK assay EC50 - unconstrained.
Setting [9] is: top of curve fitted to 100%, read-out: HEK assay EC50 - constrained.

T1 sequence (Q02153 whole entry): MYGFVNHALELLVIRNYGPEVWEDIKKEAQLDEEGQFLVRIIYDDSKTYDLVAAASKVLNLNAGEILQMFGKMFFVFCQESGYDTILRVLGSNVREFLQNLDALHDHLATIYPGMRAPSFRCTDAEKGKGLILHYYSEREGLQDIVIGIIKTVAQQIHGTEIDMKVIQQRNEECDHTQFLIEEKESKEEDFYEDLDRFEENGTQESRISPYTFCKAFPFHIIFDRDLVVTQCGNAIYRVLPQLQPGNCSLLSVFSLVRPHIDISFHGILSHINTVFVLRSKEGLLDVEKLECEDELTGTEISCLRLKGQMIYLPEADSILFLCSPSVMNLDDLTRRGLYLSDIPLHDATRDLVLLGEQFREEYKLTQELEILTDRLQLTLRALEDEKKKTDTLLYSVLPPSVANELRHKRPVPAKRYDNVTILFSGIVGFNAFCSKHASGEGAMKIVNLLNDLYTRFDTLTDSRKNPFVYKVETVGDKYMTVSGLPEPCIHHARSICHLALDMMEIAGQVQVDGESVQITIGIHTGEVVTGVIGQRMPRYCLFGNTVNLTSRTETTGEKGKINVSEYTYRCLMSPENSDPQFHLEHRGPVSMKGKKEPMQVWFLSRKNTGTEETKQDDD
T1 sequence (Q02108 whole entry): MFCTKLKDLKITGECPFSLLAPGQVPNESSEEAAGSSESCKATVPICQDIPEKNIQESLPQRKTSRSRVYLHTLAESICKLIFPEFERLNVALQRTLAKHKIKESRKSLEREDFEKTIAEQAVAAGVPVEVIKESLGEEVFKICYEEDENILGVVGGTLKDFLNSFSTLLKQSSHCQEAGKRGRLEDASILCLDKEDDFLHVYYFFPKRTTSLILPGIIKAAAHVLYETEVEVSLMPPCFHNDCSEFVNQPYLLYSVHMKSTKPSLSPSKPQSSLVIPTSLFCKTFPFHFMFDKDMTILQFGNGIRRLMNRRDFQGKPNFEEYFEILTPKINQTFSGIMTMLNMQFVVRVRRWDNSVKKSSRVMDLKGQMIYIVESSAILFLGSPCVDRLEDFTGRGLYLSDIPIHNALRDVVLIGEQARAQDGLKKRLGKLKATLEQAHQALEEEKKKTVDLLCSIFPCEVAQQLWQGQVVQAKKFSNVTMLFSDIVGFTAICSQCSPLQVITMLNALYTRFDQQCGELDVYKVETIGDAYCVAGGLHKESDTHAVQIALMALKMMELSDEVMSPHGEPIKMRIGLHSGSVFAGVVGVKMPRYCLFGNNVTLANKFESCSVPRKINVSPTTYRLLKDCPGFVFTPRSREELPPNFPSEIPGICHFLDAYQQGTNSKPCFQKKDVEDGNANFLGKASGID

As to `Nc1nc(-c2nn(Cc3ccccc3F)c3ncccc23)ncc1C1CC1` [BAY 41-2272], the pulmonary vasodilation result in test [1] is on record as “dose dependent pulmonary vasodilation”.

Regarding `Nc1nc(-c2nn(Cc3ccccc3F)c3ncccc23)nc(N)c1N1CCOCC1` [BAY 41-8543], in test [1], the pulmonary vasodilation result is listed as “dose dependent pulmonary vasodilation”.

`O=C(O)CCCCN(CCc1ccccc1OCc1ccc(CCc2ccccc2)cc1)Cc1ccc(C(=O)O)cc1` [BAY 58-2667]: the pulmonary vasodilation result in test [1] is recorded as “dose dependent pulmonary vasodilation”.

Turning to `Fc1ccccc1Cn1nc(-c2ncc(F)c(N3CCOCC3)n2)cc1-c1ccon1` [Compound I-3], the values for the Emax in test [2] and in test [3] were 60 to 80% and 80 to 100%, respectively.

Turning to `Fc1ccccc1Cn1nc(-c2ncc(F)c(N3CCn4c(nnc4C(F)(F)F)C3)n2)cc1-c1ccon1` [Compound I-16], the Emax in test [2] and in test [3] was 100 to 120% each time. For the same compound, the EC50 is 1 to 100 nM in test [2] (setting [8]), 1 to 100 nM in test [3] and under 0.1 µM in test [4].

In the case of `N#Cc1cnc(-c2cc(-c3ccon3)n(Cc3ccccc3F)n2)nc1N1CCOCC1` [Compound I-29], in test [3], the Emax was in the range of 40 to 60% and the EC50 was in the range of 100 to 500 nM.

As to `Fc1ccccc1Cn1nc(-c2ncc(F)c(NC3CCNCC3)n2)cc1-c1ccon1` [Compound I-36], the results for the Emax in test [2] and in test [3] were 40 to 60% and 80 to 100%, respectively. Further, the concentration giving a half-maximal response (EC50) in test [2] (setting [8]) was 1000 to 5000 nM; in test [3] it was 100 to 500 nM.

Turning to `COC(=O)Nc1nc(-c2cc(-c3ccon3)n(Cc3ccccc3F)n2)ncc1F` [Compound I-51], the EC50 in test [2] (setting [9]) was 1000 to 5000 nM. Besides, in test [3], the Emax was 80 to 100% and the EC50 lay within 500 to 1000 nM.

`O=C(O)CNc1nc(-c2cc(-c3ccon3)n(Cc3ccccc3F)n2)ncc1F` [Compound I-67]: the Emax is 80 to 100% in test [2] and 60 to 80% in test [3]. Also, the EC50 is over 10000 nM in test [2] (setting [9]), 5000 to 10000 nM in test [2] (setting [8]), 1000 to 5000 nM in test [3] and over 1 µM in test [4].

On to `CC(C)[C@@H](C(=O)O)N(C)c1nc(-c2nc(-c3ccon3)n(Cc3ccccc3F)n2)ncc1F` [Compound I-200], for which the Emax in test [2] is 80 to 100%; in test [3], 100 to 120%. The EC50 in test [2] (setting [9]) was 1000 to 5000 nM; in test [2] (setting [8]) it was 5000 to 10000 nM; in test [3] it was 1000 to 5000 nM; in test [4] it was over 1 µM.

Regarding `CC(C)C[C@H](C(=O)O)N(C)c1nc(-c2cc(-c3ccon3)n(Cc3ccccc3F)n2)ncc1F` [Compound I-221], the Emax in test [2] lay within 0 to 10%; in test [3], 100 to 120%. The EC50 in test [2] (setting [8]) is over 10000 nM; in test [3] it was 1000 to 5000 nM; in test [4], under 0.1 µM.

For `CC(C)[C@H](CN(C)c1nc(-c2cc(-c3ccon3)n(Cc3ccccc3F)n2)ncc1F)C(=O)O` [Compound I-248], the maximal response (Emax) in test [2] and in test [3] was 80 to 100% throughout. Further, the EC50 in test [2] (setting [8]) and in test [3] was 1 to 100 nM each time. Also, in test [5], the “Rat Mean Arterial Pressure peak change from baseline at 10 mpk” value was “C (C = peak change from baseline at 10 mpk < −20)”.

For the compound `CC1(C(=O)O)CCN(c2nc(-c3nc(-c4ccon4)n(Cc4ccccc4F)n3)ncc2F)CC1` [Compound I-249], the results for the maximum response (Emax) in test [2] and in test [3] were 60 to 80% and 100 to 120%, respectively. Also, the half-maximal effective concentration (EC50) in test [2] (setting [8]) is 1000 to 5000 nM; in test [3], 500 to 1000 nM.

Consider `CC(C)[C@@H](CN(C)c1nc(-c2cc(-c3ccon3)n(Cc3ccccc3F)n2)ncc1F)C(=O)O` [Compound I-253], for which the Emax lay within 60 to 80% in test [2] and 80 to 100% in test [3]. In addition, the concentration for a half-maximal effect (EC50) in test [2] (setting [8]) and in test [3] was 1 to 100 nM in each case. Besides, the “Rat Mean Arterial Pressure peak change from baseline at 10 mpk” value in test [5] is recorded as “B (B = −20 ≤ peak change from baseline at 10 mpk ≤ −10)”.

On to `O=C(O)[C@H]1[C@@H]2CN(c3nc(-c4cc(-c5ccon5)n(Cc5ccccc5F)n4)ncc3F)C[C@@H]21` [Compound I-271], for which, in test [3], the maximum response (Emax) lay within 80 to 100% and the concentration for a half-maximal effect (EC50) was in the range of 1 to 100 nM.

As to `CC(C)[N+]1(C)[C@@H]2CC[C@H]1CC(OC(=O)C(CO)c1ccccc1)C2` (stereo partly drawn) [Ipratropium bromide], the IC50 in test [6] worked out at 0.86 nM.

Consider `CN1CC(=O)N2[C@H](c3ccc4c(c3)OCO4)c3[nH]c4ccccc4c3C[C@@H]2C1=O` [tadalafil], for which the “blood flow regulation (exercise-induced attenuation of reflex vasoconstriction)” value in test [7] is “normal blood flow regulation was restored in eight of nine patients”.

Usually Emax stands for the size of the effect at its maximum, as opposed to the concentration needed. In general, EC50 refers to the concentration giving half of the maximal effect. Usually IC50 stands for the point on the concentration scale where inhibition reaches its midpoint. Low values mean greater potency, high ones weaker potency.

(Values after patent US10183021B2, “sGC stimulators” (Ironwood Pharmaceuticals, Inc., priority 2013, dated 2019).)
